Assay results taken from PMC3123436 (Bioorganic & medicinal chemistry, 2011).
In brackets after ≈: the same amount, converted by molar mass. Read-outs that look alike come from different tables or passages of the source.

Tests used:
[1] = target: recombinant M. tuberculosis MshC (Mycobacterium tuberculosis, UniProt P9WJM9); type: biochemical
Vero-E6 cells = settings: African green monkey, 2 d
M. tuberculosis CDC1551 = assay: 96 well plate growth inhibition; settings: visual, 8–10 d
[2] = tested on: MSH biosynthesis in M. tuberculosis Erdman; assay: MSH and GlcN-Ins levels in M. tuberculosis Erdman cultured 7 d with 2; settings: 20–75 μM 2, 7 d culture, two independent experiments
M. tuberculosis Erdman = assay: Inhibition of exponentially growing M. tuberculosis Erdman, 7 d flask culture
[3] = tested on: M. tuberculosis Erdman (control strain); assay: 96 well plate growth inhibition

recombinant M. tuberculosis MshC, sequence (P9WJM9 whole entry, looked up): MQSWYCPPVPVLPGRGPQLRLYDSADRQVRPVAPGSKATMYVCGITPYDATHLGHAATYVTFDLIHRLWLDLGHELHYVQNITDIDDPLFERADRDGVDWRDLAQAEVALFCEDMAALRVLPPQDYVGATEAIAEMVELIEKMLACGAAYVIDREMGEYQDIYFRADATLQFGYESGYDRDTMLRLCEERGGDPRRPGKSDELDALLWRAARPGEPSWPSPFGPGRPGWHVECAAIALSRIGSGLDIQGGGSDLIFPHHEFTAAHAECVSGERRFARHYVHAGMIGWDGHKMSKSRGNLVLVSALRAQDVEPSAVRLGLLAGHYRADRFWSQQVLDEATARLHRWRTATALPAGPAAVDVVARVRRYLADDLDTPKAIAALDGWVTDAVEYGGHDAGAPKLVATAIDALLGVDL

O=C(NCCCN1CCOCC1)c1ccc2c(c1)N(Cc1cccc(Cl)c1)C(=O)c1ccccc1S2 [Compound 15]
MshC inhibition, in words ([1]; SAR discussion): less active than their corresponding sulfoxides

Cc1ccc(CN2C(=O)c3ccccc3S(=O)(=O)c3ccc(C(=O)NCCCN4CCOCC4)cc32)c(C)c1 [Compound 43]
MshC inhibition, in words ([1]; SAR discussion): no measurable inhibition

CC1CC(C)CN(CCCNC(=O)c2ccc3c(c2)N(Cc2cccc(Cl)c2)C(=O)c2ccccc2[S+]3[O-])C1 (stereo not shown) [Compound 10]
MshC inhibition, in words [1]: less effective

CN(CCCNC(=O)c1ccc2c(c1)N(Cc1ccc(F)cc1)C(=O)c1ccccc1[S+]2[O-])C1CCCCC1 (stereo not shown) [Compound 37]
fold increase of IC50 / loss in activity compared to 2 [1]: > 35 fold

CC1CCCN(CCCNC(=O)c2ccc3c(c2)N(Cc2cccc(Cl)c2)C(=O)c2ccccc2[S+]3[O-])C1 (stereo not shown) [Compound 19]
Vero Cell toxicity (MIC90) (Vero-E6 cells): 100 µM

CN(CCCNC(=O)c1ccc2c(c1)N(Cc1cccc(Cl)c1)C(=O)c1ccccc1[S+]2[O-])C1CCCCC1 (stereo not shown) [Compound 2, N-[3-(cyclohexylmethylamino)propyl]-10-[(3-chlorophenyl)methyl]-10,11-dihydro-11-oxo-dibenzo-[b,f][1,4]-thiazepine-8-carboxamide-5-oxide]
MIC95 (95% inhibition) (M. tuberculosis CDC1551): 110 µM (≈ 62.1 µg/mL)
increase in the level of GlcN-Ins [2]: 9 fold
concentration at which inhibition of growth was apparent (M. tuberculosis Erdman): 20 µM
viable cells relative to day 0 inoculum (M. tuberculosis Erdman; 50 or 75 μM, plating): one-third
MIC95 (95% inhibition) [3]: 28 to 55 µM

CN(CCCNC(=O)c1ccc2c(c1)N(Cc1cccc(Cl)c1)C(=O)c1ccccc1S2)C1CCCCC1 [Compound 5, 10-(3-Chlorobenzyl)-N-(3-(cyclohexyl(methyl)amino)-propyl)-11-oxo-10,11 dihydrodibenzo[b,f][1,4]thiazepine-8-carboxamide]
MshC inhibition, in words ([1]; SAR discussion): less active than their corresponding sulfoxides

O=C(NCCCN1CCCC1)c1ccc2c(c1)N(Cc1cccc(Cl)c1)C(=O)c1ccccc1[S+]2[O-] (stereo not shown) [Compound 17]
MIC95 (95% inhibition) (M. tuberculosis CDC1551): 220 µM (≈ 115 µg/mL)

O=C(NCCN1CCCCCC1)c1ccc2c(c1)N(Cc1cccc(Cl)c1)C(=O)c1ccccc1[S+]2[O-] (stereo not shown) [Compound 20]
MIC95 (95% inhibition) (M. tuberculosis CDC1551): 110 µM (≈ 59 µg/mL)
Vero Cell toxicity (MIC90) (Vero-E6 cells): 100 µM

CC1CCCN(CCCNC(=O)c2ccc3c(c2)N(Cc2ccc(F)cc2)C(=O)c2ccccc2[S+]3[O-])C1 (stereo not shown) [Compound 35]
fold less active than 3-chlorobenzyl derivative 19 [1]: 5 fold

CCC1CCCCN1CCCNC(=O)c1ccc2c(c1)N(Cc1cccc(Cl)c1)C(=O)c1ccccc1[S+]2[O-] (stereo not shown) [Compound 12]
Vero Cell toxicity (MIC90) (Vero-E6 cells): 100 µM

Cc1ccc(CN2C(=O)c3ccccc3[S+]([O-])c3ccc(C(=O)NCCCN(C)C4CCCCC4)cc32)c(C)c1 (stereo not shown) [Compound 40]
MshC inhibition, in words ([1]; SAR discussion): just detectable inhibition

O=C(NCCCN1CCCC1)c1ccc2c(c1)N(Cc1cccc(Cl)c1)C(=O)c1ccccc1S2 [Compound 18]
MIC95 (95% inhibition) (M. tuberculosis CDC1551): 110 µM (≈ 55.7 µg/mL)
MshC inhibition, in words ([1]; SAR discussion): less active than their corresponding sulfoxides

O=C(NCCCSC1CCCCC1)c1ccc2c(c1)N(Cc1cccc(Cl)c1)C(=O)c1ccccc1[S+]2[O-] (stereo not shown) [Compound 6]
MshC inhibition, in words ([1]; SAR discussion): complete loss of measurable activity

CCCN(CCC)CCCNC(=O)c1ccc2c(c1)N(Cc1ccc(F)cc1)C(=O)c1ccccc1[S+]2[O-] (stereo not shown) [Compound 36]
fold loss in activity compared with 21 [1]: 30 fold

Cc1ccc(CN2C(=O)c3ccccc3S(=O)(=O)c3ccc(C(=O)NCCCN4CCCC4)cc32)c(C)c1 [Compound 42]
MshC inhibition, in words ([1]; SAR discussion): just detectable inhibition

CCN(CC)CCCNC(=O)c1ccc2c(c1)N(Cc1ccc(C)cc1C)C(=O)c1ccccc1[S+]2[O-] (stereo not shown) [Compound 41]
MshC inhibition, in words ([1]; SAR discussion): no measurable inhibition

O=C(NCCCN1CCOCC1)c1ccc2c(c1)N(Cc1cccc(Cl)c1)C(=O)c1ccccc1[S+]2[O-] (stereo not shown) [Compound 14]
MshC inhibition, in words [1]: similarly ineffective

CCCCSCCCNC(=O)c1ccc2c(c1)N(Cc1cccc(Cl)c1)C(=O)c1ccccc1[S+]2[O-] (stereo not shown) [Compound 8]
MshC inhibition, in words [1]: complete loss of measurable activity
